The nature of data set [1]: Liver microsomal stability, human. Type of data set: in vitro ADME. The following applies: for CLint scaled at 19.8 µM: both sexes, human, liver microsomes, pH 7.4, intrinsic clearance calculated from t1/2, read-out: Human liver microsome CLint′; for human liver microsome t(½): pooled human liver microsomes, 37° C. As for the experimental part: (§1) 1.582 mL of mouse liver microsome (20 mg/mL, female CD-1 mice, pooled, Fisher Scientific, # NC9567486) was mixed with 0.127 ml of 0.5M EDTA solution and 48.3 ml potassium phosphate buffer (0.1M, pH 7.4, 37° C.) to make 50 ml of mouse liver microsome solution. Human liver microsomal solution was made with human liver microsome (50 pooled mix gender, Fisher Scientific #50-722-516) the same way. 1 volume of 10 mM DMSO compound stock was mixed with 4 volume of acetonitrile to make 2 mM diluted compound stock in DMSO and acetonitrile. 37.83 μL, diluted compound stock was added to 3 mL liver microsomal solution and vortexed to make microsomal solution with compound. 1 ml of liver microsomal solution with compound is added to each well of a master storage plate (pION Inc., MA, #110323). All compounds are in triplicates. Mouse and human liver microsomes were tested side by side on the same plate. 175 μL of each well was dispensed from the master plate into 5 storage plates. For 0 hour time point, 450 pit pre-cooled (4° C.) internal standard (10 μM warfarin in methanol) was added to the first plate before the reaction starts. 5.25 ml of microsome assay solution A (Fisher Scientific, # NC9255727) was combined with 1.05 ml of solution B (Fisher Scientific, # NC9016235) in 14.7 ml of potassium phosphate buffer (0.1 M, pH 7.4). 45 μL of this A+B solution was added to each well of all the 96-well storage plates and mixed with pipette briefly. The plates are sealed, and all plates except 0-hr plate were incubated at 37° C., shaken at a speed of 60 rpm. 0.5 hr, 1 hr, 2 hr and 4 hr time points were taken. At each time point, 450 μL pre-cooled internal standard was added to the plate to quench the reaction. The quenched plate was then centrifuged (model 5810R, Eppendorf, Westbury, N.Y.) at 4000 rpm for 15 minutes. 150 μL supernatant was transferred to a 96-well plate and analyzed by UPLC-MS (Waters Inc., Milford, Mass.). The compounds and internal standard were detected by SIR. The log peak area ratio (compound peak area/internal standard peak area) was plotted vs time (hr) and the slope was determined to calculate the elimination rate constant [k=(−2.303)*slope]. The half life (hr) was calculated as t (1/2)=0.693/k. Intrinsic clearance was calculated as CLint′=(0.693/(t1/2))*(1/microsomal concentration in the reaction solution)*(45 mg microsome/gram liver)*(gram liver/kg b.w.), where microsomal concentration in the reaction solution is 0.5 mg/ml, and gram liver/kg b.w. of CD-1 female mice and human are 52 and 20, respectively.

A further data set can be described thus: PBS stability. Type of data set: physicochemical. To be noted: PBS pH 7.4, 37° C., up to 48 hr. The method, then: (§2) Compound stocks were 10 mM in DMSO. The internal standard was 10 μM warfarin in methanol. 1.9 ml PBS (Mediatech Inc., Manassas, Va., catalog #21-040-CM) was added to the columns of 1, 4, 7 and 10 of a 2 ml 96-well deep well plate (pION Inc., MA, #110023); this was the master plate. 1.9 μl compound stock was added to each well with SGF and mixed well. Using a multi-channel pipette, 600 μl from the columns of 1, 4, 7 and 10 were taken and added into the rest of the columns (fluids in column 1 added to columns 2 and 3, column 4 into 5 and 6, and so on). From the master plate, 65 pil were taken from each well and added into 8 storage plates (pION Inc., MA, #110323), each for a time point. The storage plates was then incubated at 37° C. and shaken at 60 rpm. Samples were taken at 0 min, 30 min, 1 hr, 2 hr, 4 hr, 8 hr, 24 hr and 48 hr. At each time point, 195 μl internal standard was added to quench the reaction. The plates were then centrifuged at 4000 rpm for 15 min and supernatant was analyzed by UPLC-MS. The compound was detected by SIR and quantitation was based on peak area ratio of test compound vs. the internal standard.

Data set [2] in a line: Plasma stability, pooled human plasma. Type of data set: in vitro ADME. To be noted: 37° C., up to 48 hr. The method, then: as §2, with “mouse plasma (Fisher Scientific, catalog #: NC9050370) or pooled human plasma (Innovative Research” for “PBS (Mediatech”, “Inc.,” for “Inc., Manassas, Va.,”, “# IPLA-1)” for “#21-040-CM)”, “plasmas” for “SGF”, “μl” for “pil”
Data set [3] is described as follows: Plasma stability, mouse plasma. It is filed as in vitro ADME. The following applies: 37° C., up to 48 hr. As for the experimental part:
as §2, with “mouse plasma (Fisher Scientific, catalog #: NC9050370) or pooled human plasma (Innovative Research” for “PBS (Mediatech”, “Inc.,” for “Inc., Manassas, Va.,”, “# IPLA-1)” for “#21-040-CM)”, “plasmas” for “SGF”, “μl” for “pil”

A short description of data set [4]: Liver microsomal stability, mouse. It is filed as in vitro ADME. The following applies: for mouse liver microsome t(½): female CD-1 mouse liver microsomes, 37° C.; for CLint scaled at 19.8 µM: female, CD-1, mouse, liver microsomes, pH 7.4, intrinsic clearance calculated from t1/2, read-out: mouse liver microsome CLint′. As for the experimental part:
as §1

Results on two molecules are retold here after patent US10647702B2, “Aryl-substituted imidazoles” (St. Jude Children's Research Hospital, priority 2010, dated 2020).

Structures are written as SMILES.

With `COc1ccc(C2=N[C@@H](c3cccc(Cl)c3)[C@@H](c3ccc(Cl)cc3)N2C(=O)N2CCNC(=O)C2)c(OC(C)C)c1` [SJ000558295-1], in data set [1], the CLint scaled at 19.8 µM was 12.1 mL/min/kg and the “human liver microsome t(½)” value amounted to 1.72 h. Also, the “PBS pH 7.4 stability t(½)” value in “PBS stability” is given as greater than 48 hr. Also, in data set [2], the “hPlasma stability t(½)” value is greater than 48 h. Also, the “mPlasma stability t(½)” value in data set [3] was greater than 48 h. Besides, in data set [4], the “mouse liver microsome t(½)” value worked out at 2.17 h and the CLint scaled at 19.8 µM was 24.9 mL/min/kg.
Regarding `COc1ccc(C2=NC(c3cccc(C)c3)C(c3ccc(Cl)cc3)N2C(=O)N2CCNC(=O)C2)c(OC(C)C)c1` (centres unmarked) [SJ000558304-1], in data set [1], the CLint scaled at 19.8 µM is 14.2 mL/min/kg and the “human liver microsome t(½)” value is 1.46 h. In “PBS stability”, the “PBS pH 7.4 stability t(½)” value is recorded as greater than 48 hr. Besides, the “hPlasma stability t(½)” value in data set [2] was greater than 48 h. In data set [3], the “mPlasma stability t(½)” value is greater than 48 h. For the same molecule, in data set [4], the “mouse liver microsome t(½)” value came to 0.73 h and the CLint scaled at 19.8 µM is 73.9 mL/min/kg.
